This passage reports EC50, IC50 and outcome results from PubChem BioAssay AID179 (DTP/NCI, 2004).

For the experiment, the system named is CEM cells HIV-1 protection, formazan growth assay. Kind of experiment: NCI AIDS Antiviral Assay. The following applies: for IC50: measured here: growth of uninfected CEM cells. The method in brief:
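Screen of anti-HIV-1 activity in human CEM cells using a formazan-based growth measurement at five drug concentrations. Hits with 50% or greater protection were repeated, and confirmation required reproducible complete protection.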

Several values for one entry are separate records, joined by “and”; a condition that tells them apart may be missing. Identical values can stand only once. Activity calls are given as the source filed them.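 How the source made its calls: active means compounds giving half or more protection of infected cells from virus-caused growth loss, again on retest; inactive means the rest.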 Where a SMILES comes first, the peptide text is derived from it. The star is where a group is joined. Boc = CC(C)(C)OC(=O)*; OBn = c1ccc(CO*)cc1

In the case of `COc1cc(SSc2cc(OC)cc([N+](=O)[O-])c2N)c(N)c([N+](=O)[O-])c1`, the half-maximal effective concentration (EC50) is 4.47 µM and the IC50 worked out at 15.5 µM.
`CCCCN1CCC(O)(c2cc(C(=O)O)[nH]c2-c2cc(C)no2)C1=O` (configuration not stated): the EC50 is > 200 µM and the IC50 came to 70.8 µM.
Turning to `CCOC(=O)C1(C#N)C(c2ccccc2)CC(O)(c2ccc(Cl)cc2)C(C(=O)c2ccc(Cl)cc2)C1c1ccccc1` (configuration not stated), the EC50 was > 12 µM and the IC50 was > 12 µM.
In the case of `CCOC(=O)[C@@H]1[C@@H](c2ccccc2)N(C)O[C@@]1(c1ccccc1)C(F)(F)F`, the EC50 was > 200 µM and the IC50 stood at 47.9 µM.
For `CCOC(=O)C1=C(C)N(c2ccc(C)cc2)C2=C(C(=O)N(c3ccccc3)C2c2ccccc2)C1c1ccccc1` (configuration not stated), in that order: > 5.01 µM and > 5.01 µM.
For the molecule `O=c1[nH]c2ccccc2n1C1CCN(CCOc2ccccc2)CC1`, the EC50 is > 200 µM and the IC50 was found to be 23.4 µM.
As for `CN(C)C(=O)OC(Cn1cncn1)(Cn1cncn1)c1ccc(Cl)cc1Cl`, the EC50 was > 200 µM and the half-maximal inhibitory concentration (IC50) was > 200 µM.
With `N#Cc1ccc(Sc2nc3ccccc3[nH]2)cc1`, the result was inactive.
As to `O=C1CCC(c2ccccc2)C(O)(C(=O)O)C1` (configuration not stated), the EC50 was > 389 µM and the 50% inhibitory concentration (IC50) was > 389 µM.
Regarding `COC(=O)c1nn(C(=N)c2ccc(Cl)cc2)c2c1CCC2`, the EC50 is > 813 µM and the 50% inhibitory concentration (IC50) is > 813 µM.
For `COC1=C(N)C(=O)c2nc(-c3nc(C(=O)O)c(C)c(-c4ccc(OC)c(OC)c4O)c3N)ccc2C1=O`, the EC50 is > 4.9 µM; the half-maximal inhibitory concentration (IC50) is 0.00302 µM and 0.00191 µM.
`CN(C)CC(/C(Cc1ccccc1)=N\NC(=O)C[n+]1ccccc1)c1ccccc1` (configuration not stated): the EC50 was > 295 µM and the IC50 turned out to be 138 µM.
For `CC1(C)O[C@@H]2[C@H](O1)C(=O)O[C@@H]2CO` the same measures were > 200 µM and > 200 µM.
For the molecule `CC(=O)NCCC1CN(C(=O)/C=C/I)c2ccccc21` (configuration not stated), the EC50 was > 200 µM and the IC50 was found to be 1.1 µM.
In the case of `OCc1cn(C(c2ccccc2)(c2ccccc2)c2ccccc2)cn1`, the EC50 was 195 µM and the 50% inhibitory concentration (IC50) was > 200 µM.
Regarding `CCOC(=O)C(NC(=O)CC)(Nc1ccc(S(=O)(=O)Nc2ccc(OC)nn2)cc1)C(F)(F)F` (configuration not stated), the EC50 was > 200 µM and the half-inhibitory concentration (IC50) was > 200 µM.
Take `CN(C)C1=NC2=S(SC(Nc3ccccc3)=N2)S1` (configuration not stated): the result was inactive.
For `NC(=O)c1cccc(NC=O)c1`, the EC50 was > 1510 µM and the IC50 stood at 1290 µM.
On to `O=C1OCC(Cc2ccc3c(c2)OCO3)[C@H]1Cc1ccccc1` (some centres not stated), for which the EC50 was > 200 µM and the IC50 came to 186 µM.
Consider `COC(=O)c1ccc(/C=C2\Oc3cc(O)ccc3C2=O)cc1`, for which the EC50 was > 200 µM and the IC50 worked out at 182 µM.
Regarding `O=S(=O)(O)c1cc2cc(S(=O)(=O)O)c(O)cc2cc1O`, the result was inactive.
On the same count and under the same terms, the value for `O=C(O)C(CS)NCc1c2ccccc2nc2ccccc12` (configuration not stated) was “inactive”.
With `O=C(CC(C(=O)c1cccs1)c1ccsc1)c1ccc(Cl)s1` (configuration not stated), the EC50 was > 200 µM and the 50% inhibitory concentration (IC50) amounted to 97.7 µM.
With `CCOC(=O)C(C(=O)OCC)=S1c2ccccc2Sc2ccccc21`, the EC50 was > 200 µM and the IC50 is > 200 µM.
The molecule `CO/C(=N\N=Cc1ccccc1)c1ccncc1` yielded an EC50 of 15.1 µM and a 50% inhibitory concentration (IC50) of 166 µM.
Regarding `CC(C)OP(=O)(OC(C)C)C(C(F)(F)F)C(F)(F)F`, the EC50 is > 200 µM and the IC50 was > 200 µM.
For `c1ccc2c(c1)CCc1c-2n(CCN2CCOCC2)c2ccccc12`, the EC50 is > 200 µM and the IC50 is > 200 µM.
On to `CN(C(=O)C12C3(C(=O)C(C)(C)C)C4C5(C#N)C3C1(C(=O)C(C)(C)C)C5C42C(=O)C(C)(C)C)C(C)(C)C` (configuration not stated), for which the EC50 is > 52.5 µM and the half-maximal inhibitory concentration (IC50) was > 52.5 µM.
For the molecule `COc1ccc2[nH]c3c(C)c4ccnc(NCCCN(C)CCCNc5ccc6ncn7c8ccccc8c(=O)c5c67)c4c(C)c3c2c1`, the EC50 is > 0.0251 µM and the 50% inhibitory concentration (IC50) is 0.00794 µM.
Regarding `CC(C)CC(NC(=O)OC(C)(C)C)C(=O)NC(CCC(=O)OCc1ccccc1)C(N)=O` (stereo not drawn) (Boc-Leu-Glu(OBn)-NH2; configuration not given here), the EC50 was > 200 µM and the IC50 came to 191 µM.
On to `CC(O)CCC(=O)NCCS(=O)(=O)O` (configuration not stated), for which the EC50 is > 200 µM and the IC50 is > 200 µM.
As for `O=c1[nH]c2cn(-c3ccccc3)nc2c(=O)n1O`, the EC50 is > 200 µM and the IC50 came to 3.55 µM.
Take `COc1ccc(C(=O)/C=C/c2cc(C(C)(C)C)c(O)c(C(C)(C)C)c2)cc1`: the EC50 was > 7.41 µM and the half-inhibitory concentration (IC50) is > 7.41 µM.
Regarding `CC1CC2OC(=O)C3CCCC(=C23)[C@@]12C[C@@H](c1ccoc1)OC2=O` (some centres not stated), the EC50 is > 550 µM and the IC50 was determined as 269 µM.
Turning to `CC1=C/C(=C(/c2cccc(S(=O)(=O)O)c2)c2cc(C)c(O)c(C(=O)O)c2)C=C(C(=O)O)C1=O`, the result was inactive.
As for `Cn1cc2ccccc2c1-c1nc(F)nc(OCC(=O)[C@H]2CCC3[C@@H]4CCC5=CC(=O)CC[C@]5(C)C4[C@@H](O)C[C@@]32C)n1` (some centres not stated), the EC50 was > 9.12 µM and the concentration for half-maximal inhibition (IC50) came out at 2.75 µM.
On to `COc1ccc(OC)c2c(OC)cc(C)cc12`, for which the EC50 was > 200 µM and the 50% inhibitory concentration (IC50) came out at 89.1 µM.
For `CCN1CCCn2c(=S)[nH]c3cc(Br)cc1c32`, in that order: 57.5 µM and 97.7 µM.
For `CN(C)c1nc(NC23CC4CC(CC(C4)C2)C3)nc(N(C)C)n1`, in that order: > 200 µM and 5.01 µM.
As for `O=[N+]([O-])c1ccc2[nH]c(=S)n(/C=C(/c3ccccc3)S(=O)Cc3ccccc3)c2c1` (configuration not stated), the EC50 was > 200 µM and the IC50 is > 200 µM.
As to `NC(CCC(=O)NC(CS(=O)(=O)O)C(=O)O)C(=O)O` (configuration not stated), the EC50 is > 603 µM and the half-inhibitory concentration (IC50) is > 603 µM.
In the case of `[Ni+2].c1nnc(N2CNCCNCN(c3nnc[n-]3)CNCCNC2)[n-]1`, the EC50 was > 100 µM and the IC50 is 97.7 µM.
With `Cn1nnnc1SC(F)(F)c1nc2ccccc2o1`, the EC50 was 126 µM and the IC50 was > 200 µM.
As to `CC12CCC3=C(CSC4=C3CSc3ccccc34)C1=CCCC2=O` (configuration not stated), the EC50 was > 200 µM and the half-inhibitory concentration (IC50) is > 200 µM.
On to `CC1(C)OC2O[C@H](C3OC[C@H]4O[C@@H](n5ccc(=O)[nH]c5=O)C(O)[C@H]4N3O)[C@@H]3OC(C)(C)O[C@@H]3C2O1` (some centres not stated), for which the EC50 was > 200 µM and the half-maximal inhibitory concentration (IC50) was 105 µM.
For `C=C1CC(CN2CCC(=O)NC2=O)(c2ccccc2)OC1=O` (configuration not stated), the EC50 was > 200 µM and the 50% inhibitory concentration (IC50) turned out to be 1.48 µM.
Consider `COC[C@@H](N=CN1CCc2cc(OC)c(OC)cc2[C@@H]1C)C(C)(C)C`, for which the EC50 was > 513 µM and the IC50 is 490 µM.
Take `COc1cc(Nc2c3ccccc3nc3ccccc23)ccc1NS(C)(=O)=O`: the EC50 is > 200 µM and the half-maximal inhibitory concentration (IC50) is 2.4 µM.
Regarding `N#Cc1nc(C2SCCCS2)oc1N`, the EC50 was > 200 µM and the IC50 is > 200 µM.
With `Cc1cc(Cl)ccc1C(=O)c1ccc2ccccc2c1C(=O)O`, the EC50 is > 550 µM and the half-inhibitory concentration (IC50) came to 126 µM.
Take `O=S1(=O)CC(c2ccccc2)(c2ccccc2)Nc2ccccc21`: the EC50 is > 200 µM and the IC50 was > 100 µM.
On to `O=C(Nc1ccc(Cl)c(Cl)c1)OCn1ncc2ccc([N+](=O)[O-])cc21`, for which the EC50 was > 200 µM and the half-inhibitory concentration (IC50) is 132 µM.
For `Cc1coc2c1C1OC(=O)C3(C/C=C\C(C)C2)OC13` (configuration not stated), in that order: > 72.4 µM and > 72.4 µM.
Turning to `COC(=O)c1cc(C(c2cc(C(=O)OC)c(O)c(Br)c2C)C(Cl)(Cl)Cl)c(C)c(Br)c1O`, the EC50 is > 200 µM and the 50% inhibitory concentration (IC50) turned out to be 112 µM.
`Cc1ccc([B-]23OCC[N+]2(CNC(=O)C2=C(O)C4(O)C(=O)C5=C(O)c6c(O)cccc6C(C)(O)C5CC4C(N(C)C)C2=O)CCO3)cc1` (configuration not stated): the EC50 is > 53.7 µM and the IC50 was > 53.7 µM.
On to `CN1c2ccccc2C2=C(C3=C(CS2)C(=O)CCS3)S1(=O)=O`, for which the EC50 is > 38.9 µM and the IC50 is > 38.9 µM.
For the molecule `Clc1ccc(C2=C(c3ccccc3)C(c3ccc(Cl)cc3)N3C(=N[C@H]4CCCC[C@@H]43)N2)cc1` (some centres not stated), the EC50 is > 200 µM and the half-inhibitory concentration (IC50) was 20.9 µM.
For `CN1C(=O)/C(=C2\SC(=O)N(CN3CCOCC3)C2=O)c2cc(Br)ccc21`, in that order: > 200 µM and 26.3 µM.
Consider `O=c1n(CC2CS2)c2ccccc2n1CC1CS1` (configuration not stated), for which the EC50 is > 339 µM and the IC50 turned out to be 6.61 µM.
Regarding `COc1ccc2nc3cccc([N+](=O)[O-])c3c(NCCCCCC(=O)O)c2c1`, the EC50 was > 2 µM and the IC50 turned out to be 0.302 µM.
Consider `N#CCC(=O)N/N=C1\C(=O)N(c2ccc(Cl)cc2)C(=O)C(=O)C1c1nc2ccccc2o1` (configuration not stated), for which the result was inactive.
On to `CCCC1OC[C@H]2OC(n3cc(C)c(=O)[nH]c3=O)C[C@H]2N1O` (some centres not stated), for which the EC50 was 52.5 µM and the IC50 is > 200 µM.
Consider `CC(=O)OC1CC2(C)C(OC(C)=O)CC1C2(C)C` (configuration not stated), for which the EC50 was > 200 µM and the IC50 was > 200 µM.
For `Cc1c(N)c(=O)oc2cc3occc(=O)c3cc12`, the EC50 was > 20.4 µM and the half-maximal inhibitory concentration (IC50) was determined as 13.5 µM.
For `NCCNCCCCCCCCCCCCOS(=O)(=O)O`, in that order: > 112 µM and > 112 µM.
As for `CC1=C(C(=O)CC(=O)C(=O)Nc2ccc(C)c(C)c2)Sc2ccccc2N1`, the EC50 is > 6.92 µM and the IC50 is > 6.92 µM.
In the case of `NCCC1C2CC3CC(C2)CC1C3` (configuration not stated), the result was inactive.
On to `C[C@]1(O)CC[C@H]2[C@@H]3CCC4=CC(=O)CC[C@]4(C)[C@@]3(Cl)[C@@H](Cl)C[C@@]21C`, for which the EC50 was > 200 µM and the IC50 is > 200 µM.
`CC(=O)NNC(=S)N/C=C/c1c(C)ccc([N+](=O)[O-])c1[N+](=O)[O-]`: the EC50 is > 200 µM and the half-maximal inhibitory concentration (IC50) came to 41.7 µM.
In the case of `NCCN.NCCN.O=C([O-])CCl.O=C([O-])CCl.[Co+3].[O-][Cl+3]([O-])([O-])[O-]`, the result was inactive.
